Like-named read-outs stand apart in the source and are kept apart here.
Legend:
[1] = tested on: GnRH binding sites of LNCaP cells; test: GnRH analogue binding to LNCaP cells (displacement of 125I-buserelin); parameters: species or system human; conditions: for displacement of labelled buserelin: specificity test, structurally unrelated peptides, LNCaP
Description: (§1) Br.~~~~ ~ ~ J. Cace (19) 62 969 ?amla resLd,19 The effects of gonadotrophin releasing hormone analogues in prostate cancer are mediated through specific tumour receptors A. Qayuml, W. Gullick2, R.C. Clayton3, K. Sikora' & J. Waxman' 'Department of Clinical Oncology and 2ICRF Oncology Group, Royal Postgraduate Medical School, and 3Clinical Endocrinology, MRC, Northwick Park Hospital, London, UK. Summary We have investigated the possibility of a direct regulatory effect of gonadotrophin releasing hormone (GnRH) analogues on prostatic cancer cell growth. Here we report high affinity binding (Kd = 50 nM) of a GnRH analogue resulting in biphasic growth modulation of the human androgen-sensitive prostatic cancer cell line LNCaP. […] Seventy-six human benign and malignant tumours were assayed following surgical resection. […] Cancer of the prostate is the second most common cause of malignancy among males. The treatment of prostatic cancer aims to reduce serum androgen concentrations. The long- acting agonist analogues of GnRH have been recently intro- duced as effective alternative therapies to orchiectomy and oestrogen treatment (Waxman, 1987). Their effect on andro- gen dependent cell growth is thought to be mediated through down-regulation of the pituitary-gonadal axis. GnRH agon- ist treatment leads to an initial increase in the serum levels of LH, FSH and androgens and this may be accompanied by tumour flare (Waxman et al., 1985). However, this exacerba- tion of symptoms is not temporally related to changes in serum LH, FSH and androgen concentrations. The differ- ences in the timing of these biochemical and clinical phenomena raises the possibility of a direct effect of GnRH analogues at the level of the tumour. This present study explored the direct effects of GnRH analogues on prostatic cancer cells in culture and in vivo. GnRH analogue binding to human prostatic cancer cells grown in culture and biopsy samples was first examined. GnRH binding sites were characterised in cell lines and in human tumours. The biological effects of GnRH on prostatic cancer cells and a possible autocrine stimulatory role of GnRH-like peptides were investigated. Materials and methods Cell culture The human androgen-sensitive prostatic cancer cell line LNCaP (isolated from lymph node metastasis; Horoszewicz et al., 1983) and the human androgen-insensitive prostatic cell line DU145 (isolated from brain metastasis) were obtained from the American Type Culture Collection. Cul- tures were maintained in exponential growth in RPMI 1640 medium containing 10% charcoal stripped fetal calf serum and 5 fig ml-I insulin. The fetal calf serum used in cell cul- ture medium was treated with dextran and charcoal to remove steroids. Charcoal 0.25% and dextran-T70 0.025% were added to the serum, which was heated at 56'C for 2 h and then centrifuged at 4,000 r.p.m. for O min. The pellet was discarded, serum was filtered through 0.4 ltm filters and used in culture medium. The treated serum was assayed for steroid hormones by the Hammersmith Hospital Endocrine Laboratories and found to be steroid free, Cultures were incubated at 37?C in a humidified atmosphere containing 5% CO2 and subcultured weekly using 0.1% EDTA to remove the cells from the plastic substratum. Under these conditions, the doubling times of DU145 and LNCaP cells were 72 and 144 h respectively. GnRH binding assays Exponentially growing cells were harvested with 0.1% EDTA, washed twice with PBS and counted using 0.2% trypan blue as an indicator. The cells were then resuspended in assay buffer (10 mM Tris-HCI pH 7.6, 1 mM dithiothreitol, 0.3% bovine serum albumin). One million cells per tube were incubated with 200,000 c.p.m. (0.1 nM) of 25I buserelin (125J_ D-Ser (TBU)6-LHRH-ethylamide) (Hoechst AG, Frankfurt), (specific activity 53,000 kBq;bg-') with or without varying concentrations of unlabelled buserelin (O.1-100 nM). Non- specific binding was estimated in the presence of 10 IM unlabelled buserelin. […]

[2] = GnRH radioimmunoassay, specificity; conditions: cross-reactivity control, Figure 1; sensitivity 0.25 fmol per tube
DU145 cells = test: Biological response study, growth of DU145 cells; type: cell-based, human; conditions: DU145 (androgen-insensitive) cells, 10 days
Description: (§2) Br.~~~~ ~ ~ J. Cace (19) 62 969 ?amla resLd,19 The effects of gonadotrophin releasing hormone analogues in prostate cancer are mediated through specific tumour receptors A. Qayuml, W. Gullick2, R.C. Clayton3, K. Sikora' & J. Waxman' 'Department of Clinical Oncology and 2ICRF Oncology Group, Royal Postgraduate Medical School, and 3Clinical Endocrinology, MRC, Northwick Park Hospital, London, UK. Summary We have investigated the possibility of a direct regulatory effect of gonadotrophin releasing hormone (GnRH) analogues on prostatic cancer cell growth. Here we report high affinity binding (Kd = 50 nM) of a GnRH analogue resulting in biphasic growth modulation of the human androgen-sensitive prostatic cancer cell line LNCaP. […] Seventy-six human benign and malignant tumours were assayed following surgical resection. […] Cancer of the prostate is the second most common cause of malignancy among males. The treatment of prostatic cancer aims to reduce serum androgen concentrations. The long- acting agonist analogues of GnRH have been recently intro- duced as effective alternative therapies to orchiectomy and oestrogen treatment (Waxman, 1987). […] GnRH binding assays Exponentially growing cells were harvested with 0.1% EDTA, washed twice with PBS and counted using 0.2% trypan blue as an indicator. […]

[3] = tested on: GnRH binding sites of DU145 cells; test: GnRH analogue binding to DU145 cells (displacement of 125I-buserelin); parameters: species or system human
Description: as §2

LNCaP cells = test: Biological response study, growth of LNCaP cells; type: cell-based, human
Description: as §1, with “Under these conditions, the doubling times of DU145 and LNCaP cells were 72 and 144 h respectively.” left out, “indicator.” for “indicator. The cells were then resuspended in assay buffer (10 mM Tris-HCI pH 7.6, 1 mM dithiothreitol, 0.3% bovine serum albumin). One million cells per tube were incubated with 200,000 c.p.m. (0.1 nM) of 25I buserelin (125J_ D-Ser (TBU)6-LHRH-ethylamide) (Hoechst AG, Frankfurt), (specific activity 53,000 kBq;bg-') with or without varying concentrations of unlabelled buserelin (O.1-100 nM). Non- specific binding was estimated in the presence of 10 IM unlabelled buserelin.”

[4] = 100-fold excess of GnRH antagonist over buserelin, cell numbers, triplicate, representative experiment (Figure 6)

## oxytocin: structurally unrelated peptide
[1]
  displacement of labelled buserelin: did not displace labelled buserelin
[2]
  GnRH-immunoreactivity in GnRH-RIA: did not show any GnRH-immunoreactivity

## D-Ser (TBU)6-LHRH-ethylamide [buserelin]
DU145 cells
  response to buserelin treatment (growth): did not show any response
DU145 cells; listed as GnRH analogue
  response to buserelin treatment (growth): without any biological response
[3]; 125I buserelin 0.1 nM, 3 h, 4 C, pH 7.6, abstract, read-out: Kd, low-affinity binding in DU145
  Kd: 10000 nM
[1]; Scatchard transformation of the same data, single class of binding sites in LNCaP cells, read-out: Kd (Scatchard plot)
  Kd: 40 nM
[1]; Scatchard transformation, LNCaP cells
  binding sites per cell: 35,000 binding sites per cell
[1]; intact LNCaP cells (10^6 per tube), 125I buserelin 0.1 nM, unlabelled buserelin, Tris-HCl pH 7.6, 3 h, 4 C, triplicate, representative experiment, read-out: Kd of GnRH analogue binding in LNCaP
  Kd: 50 nM
LNCaP cells; 10 days, GnRH analogue 100 nM
  growth of the cells at higher concentrations: slightly inhibited
LNCaP cells; 10 days, buserelin 1-10 nM, 10% charcoal stripped FCS, Burton's method, three experiments each in triplicate
  stimulation of growth relative to control cultures, total DNA content: ≤ 140%
LNCaP cells; 10 days, buserelin 1-10 nM, 10% charcoal stripped FCS, three experiments each in triplicate
  stimulation of growth relative to control cultures, cell numbers: ≤ 140%

## N[C@@H](CSSC[C@H](N)C(=O)Nc1ccc([N+](=O)[O-])cc1)C(=O)Nc1ccc([N+](=O)[O-])cc1 [L-cystine-bis-(4-nitroanilide)]
[3]; protease substrate final concentration 10 µM (printed "10 gsM")
  reduction of specific binding of buserelin by protease substrate: 68%
[1]; LNCaP cells, protease substrate final concentration 10 µM (printed "10 gsM")
  reduction of specific binding of buserelin by protease substrate: 28%

## D-pGlul, D-Phe2, D- Trp3' 6) GnRH [GnRH antagonist]
LNCaP cells; [4]
  block of inhibitory effect of buserelin: partially blocked
  block of stimulatory effect of buserelin: partially blocked

## bradykinin: structurally unrelated peptide (RPPGFSPFR; Bradykinin; UniProt P01042 381-389, looked up)
[1]
  displacement of labelled buserelin: did not displace labelled buserelin
[2]
  GnRH-immunoreactivity in GnRH-RIA: did not show any GnRH-immunoreactivity

Reference: publication PMC1971749, “The effects of gonadotrophin releasing hormone analogues in prostate cancer are mediated through specific tumour receptors” (British Journal of Cancer, 1990)
